Biological target: T1, CRF1 receptors (Homo sapiens, UniProt P34998)
T1 construct: endogenous in cells; host or cells: IMR-32 cells, transformed with 2.5 µM 5'-bromo-2'-deoxyuridine for 10 days; membrane preparation
T1 sequence (P34998 24-415): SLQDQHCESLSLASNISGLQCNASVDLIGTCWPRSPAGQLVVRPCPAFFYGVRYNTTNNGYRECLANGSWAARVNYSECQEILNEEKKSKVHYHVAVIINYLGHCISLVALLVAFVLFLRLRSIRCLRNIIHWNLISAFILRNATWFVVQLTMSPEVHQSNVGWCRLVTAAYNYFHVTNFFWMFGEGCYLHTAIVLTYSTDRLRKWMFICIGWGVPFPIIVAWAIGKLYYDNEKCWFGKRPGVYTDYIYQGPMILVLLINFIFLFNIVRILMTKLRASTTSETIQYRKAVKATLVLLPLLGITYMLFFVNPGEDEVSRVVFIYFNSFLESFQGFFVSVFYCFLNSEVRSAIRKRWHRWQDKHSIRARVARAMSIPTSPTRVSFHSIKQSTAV
Assay: CRF1 receptor radioligand binding assay ([125I]-oCRF competition, IMR-32 cell membranes)
Conditions: IMR-32 cell membranes, [125I]-oCRF 100 pM; read-out: Ki (CRF-1R)
Procedure: CRF1 receptor antagonists, by occupying the same receptors, blocks the accessibility of the receptors to CRF, a hypothalamic factor mediating body's responses to physiological and psychological stress. The following radioligand binding assay examines the ability of the antagonists to bind the CRF1 receptors by assessing their ability to compete with binding of CRF to the receptors in cell membrane.
Tissue culture and membrane preparation. IMR-32 cells were grown at 37° C. in 5% CO2 as a monolayer in medium consisting of MEM supplemented with 10% heat-inactivated fetal bovine serum, 0.1 mM nonessential amino acids, 1 mM sodium pyruvate and 2 mM L-glutamine. […] After transformation, cells were rinsed twice with phosphate-buffered saline, and incubated for 10–15 min. at 4° C. in homogenization buffer consisting of 50 mM Tris (pH 7.2), 10 mM MgCl2 and 2 mM EGTA. Cells were transferred from plates to polypropylene tubes (16×100 mm), homogenized and centrifuged at 32,000×g for 15 min. Pellets were resuspended by homogenization in buffer and centrifuged at 32,000×g for 15 min. Pellets were resuspended in homogenization buffer then stored at −80° C. until needed.
Radioligand binding assays. […] The assay buffer consisted of 50 mM Tris (pH 7.2), 10 mM MgCl2, 0.5% BSA, 0.005% Triton X-100, 10 μg/mL aprotinin and 10 μg/mL leupeptin. Assays were stopped by addition of ice-cold wash buffer (50 mM Tris, pH 7.4 and 0.2% BSA). Filtration over glass fiber filters (Whatman GF/B) previously soaked in 50 mM Tris, pH 7.2 and 1% BSA was carried out using a Brandel cell harvester. Filters were washed with 10 mL of ice-cold wash buffer. Non-specific binding was defined with 10 μM oCRF. IC50 values for oCRF and test compounds were calculated by nonlinear regression using a one-site binding curve (GraphPad Prism).

Row | SMILES | Ki [nM]
1 | CCCN(CC1CC1)C(=O)c1c(C)nc2n1CCN2c1c(C)cc(C)cc1C [Example 1, 2-Methyl-7-(2,4,6-trimethyl-phenyl)-6,7-dihydro-5H-imidazo[1,2-α]imidazole-3-carboxylic acid cyclopropylmethyl-propyl-amide] | < 1000
2 | CCc1nc2n(c1C(=O)N(CC1CC1)CC(F)(F)F)CCN2c1c(C)cc(C)cc1C [Example 5, 2-Ethyl-7-(2,4,6-trimethyl-phenyl)-6,7-dihydro-5H-imidazo[1,2-a]imidazole-3-carboxylic acid cyclopropylmethyl-(2,2,2-trifluoro-ethyl)-amide] | < 100
3 | CCc1nc2n(c1C(=O)N(CC1CC1)CC(F)(F)C(F)(F)F)CCN2c1c(C)cc(C)cc1C [Example 7, 2-Ethyl-7-(2,4,6-trimethyl-phenyl)-6,7-dihydro-5H-imidazo[1,2-a]imidazole-3-carboxylic acid cyclopropylmethyl-(3,3,3,2,2-pentafluoro-propyl)-amide] | < 100
4 | CCc1nc2n(c1C(=O)N(CCC(F)(F)F)CC1CC1)CCN2c1c(C)cc(C)cc1C [Example 9, 2-Ethyl-7-(2,4,6-trimethyl-phenyl)-6,7-dihydro-5H-imidazo[1,2-a]imidazole-3-carboxylic acid cyclopropylmethyl-(3,3,3-trifluoro-propyl)-amide] | < 100
5 | CCCN(CCC(F)(F)F)C(=O)c1c(CC)nc2n1CCN2c1c(C)cc(C)cc1C [Example 12, 2-Ethyl-7-(2,4,6-trimethyl-phenyl)-6,7-dihydro-5H-imidazo[1,2-a]imidazole-3-carboxylic acid propyl-(3,3,3-trifluoropropyl)-amide] | < 1000
6 | CCCN(CCc1ccccc1)C(=O)c1c(CC)nc2n1CCN2c1c(C)cc(C)cc1C [Example 13, 2-Ethyl-7-(2,4,6-trimethyl-phenyl)-6,7-dihydro-5H-imidazo[1,2-a]imidazole-3-carboxylic acid phenethyl-propyl-amide] | < 1000
7 | CCc1nc2n(c1C(=O)N(CCC(F)(F)F)Cc1ccc(Cl)cc1)CCN2c1c(C)cc(C)cc1C [Example 14, 2-Ethyl-7-(2,4,6-trimethyl-phenyl)-6,7-dihydro-5H-imidazo[1,2-a]imidazole-3-carboxylic acid (4-chloro-benzyl)-(3,3,3-trifluoro-propyl)-amide] | < 1000
8 | CCc1nc2n(c1C(=O)N(CCC1CC1)CCC(F)(F)F)CCN2c1c(C)cc(C)cc1C [Example 17, 2-Ethyl-7-(2,4,6-trimethyl-phenyl)-6,7-dihydro-5H-imidazo[1,2-a]imidazole-3-carboxylic acid (2-cyclopropyl-ethyl)-(3,3,3-trifluoro-propyl)-amide] | < 1000
9 | CCc1nc2n(c1C(=O)N(CCC(F)(F)F)Cc1ccccc1)CCN2c1c(C)cc(C)cc1C [Example 18, 2-Ethyl-7-(2,4,6-trimethyl-phenyl)-6,7-dihydro-5H-imidazo[1,2-a]imidazole-3-carboxylic acid benzyl-(3,3,3-trifluoro-propyl)-amide] | < 1000
10 | CCCN(Cc1ccc(Cl)cc1)C(=O)c1c(CC)nc2n1CCN2c1c(C)cc(C)cc1C [Example 21, 2-Ethyl-7-(2,4,6-trimethyl-phenyl)-6,7-dihydro-5H-imidazo[1,2-a]imidazole-3-carboxylic acid (4-chloro-benzyl)-propyl-amide] | < 10000
11 | CCc1nc2n(c1C(=O)N(CCc1ccccc1)CCC(F)(F)F)CCN2c1c(C)cc(C)cc1C [Example 23, 2-Ethyl-7-(2,4,6-trimethyl-phenyl)-6,7-dihydro-5H-imidazo[1,2-a]imidazole-3-carboxylic acid phenethyl-(3,3,3-trifluoro-propyl)-amide] | < 10000
12 | CCc1nc2n(c1C(=O)N(CCC(F)(F)F)Cc1cccc(F)c1)CCN2c1c(C)cc(C)cc1C [Example 24, 2-Ethyl-7-(2,4,6-trimethyl-phenyl)-6,7-dihydro-5H-imidazo[1,2-a]imidazole-3-carboxylic acid (3-fluoro-benzyl)-(3,3,3-trifluoro-propyl)-amide] | < 10000
13 | CCCN(Cc1ccccc1)C(=O)c1c(CC)nc2n1CCN2c1c(C)cc(C)cc1C [Example 25, 2-Ethyl-7-(2,4,6-trimethyl-phenyl)-6,7-dihydro-5H-imidazo[1,2-a]imidazole-3-carboxylic acid benzyl-propyl-amide] | < 10000

More lines, now with the values ahead:

Row | Ki [nM] | SMILES
14 | < 100 | CCCN(CC1CC1)C(=O)c1c(CC)nc2n1CCN2c1c(C)cc(C)cc1C [Example 2, 2-Ethyl-7-(2,4,6-trimethyl-phenyl)-6,7-dihydro-5H-imidazo[1,2-α]imidazole-3-carboxylic acid cyclopropylmethyl-propyl-amide]
15 | < 100 | CCCN(CC(F)(F)F)C(=O)c1c(CC)nc2n1CCN2c1c(C)cc(C)cc1C [Example 6, 2-Ethyl-7-(2,4,6-trimethyl-phenyl)-6,7-dihydro-5H-imidazo[1,2-a]imidazole-3-carboxylic acid propyl-(2,2,2-trifluoro-ethyl)-amide]
16 | < 100 | CCc1nc2n(c1C(=O)N(CC1CC1)CC1CC1)CCN2c1c(C)cc(C)cc1C [Example 8, 2-Ethyl-7-(2,4,6-trimethyl-phenyl)-6,7-dihydro-5H-imidazo[1,2-a]imidazole-3-carboxylic acid cyclopropylmethyl-(cyclopropylmethyl)-amide]
17 | < 100 | CCc1nc2n(c1C(=O)N(CC)CC1CC1)CCN2c1c(C)cc(C)cc1C [Example 10, 2-Ethyl-7-(2,4,6-trimethyl-phenyl)-6,7-dihydro-5H-imidazo[1,2-a]imidazole-3-carboxylic acid cyclopropylmethyl-(ethyl)-amide]
18 | < 1000 | CCCN(CCC)C(=O)c1c(CC)nc2n1CCN2c1c(C)cc(C)cc1C [Example 11, 2-Ethyl-7-(2,4,6-trimethyl-phenyl)-6,7-dihydro-5H-imidazo[1,2-a]imidazole-3-carboxylic acid dipropyl-amide]
19 | < 1000 | CCCCN(CC)C(=O)c1c(CC)nc2n1CCN2c1c(C)cc(C)cc1C [Example 15, 2-Ethyl-7-(2,4,6-trimethyl-phenyl)-6,7-dihydro-5H-imidazo[1,2-a]imidazole-3-carboxylic acid butyl-ethyl-amide]
20 | < 1000 | CCc1nc2n(c1C(=O)N(CC)CCC1CC1)CCN2c1c(C)cc(C)cc1C [Example 16, 2-Ethyl-7-(2,4,6-trimethyl-phenyl)-6,7-dihydro-5H-imidazo[1,2-a]imidazole-3-carboxylic acid (2-cyclopropyl-ethyl)-ethyl-amide]
21 | < 1000 | C=CCN(CCC)C(=O)c1c(CC)nc2n1CCN2c1c(C)cc(C)cc1C [Example 19, 2-Ethyl-7-(2,4,6-trimethyl-phenyl)-6,7-dihydro-5H-imidazo[1,2-a]imidazole-3-carboxylic acid allyl-propyl-amide]
22 | < 1000 | CCCN(CCC1CC1)C(=O)c1c(CC)nc2n1CCN2c1c(C)cc(C)cc1C [Example 20, 2-Ethyl-7-(2,4,6-trimethyl-phenyl)-6,7-dihydro-5H-imidazo[1,2-a]imidazole-3-carboxylic acid (2-cyclopropyl-ethyl)-propyl-amide]
23 | < 10000 | C=CCN(CC=C)C(=O)c1c(CC)nc2n1CCN2c1c(C)cc(C)cc1C [Example 22, 2-Ethyl-7-(2,4,6-trimethyl-phenyl)-6,7-dihydro-5H-imidazo[1,2-a]imidazole-3-carboxylic acid diallylamide]

From patent publication US7125990B2, “Imidazolyl derivatives as corticotropin releasing factor inhibitors” (Bristol-Myers Squibb COmpany, priority 2001, dated 2006)
